Reference: patent US11987586B1 (TAKEDA PHARMACEUTICAL COMPANY LIMITED, priority 2022, dated 2024)

What follows are compounds tested against T1, human OX2 receptor (Homo sapiens, UniProt O43614) (assay: Measurement of orexin type 2 receptor agonist activity (calcium fluorescence, Fluo-4, FDSS)). Details: 3 uM test compound; CHO cells expressing human OX2 receptor; DMSO = 0%, 10 nM orexin A (human) = 100%.
T1 construct: expressed in transfected cells
T1 sequence (O43614 1-444): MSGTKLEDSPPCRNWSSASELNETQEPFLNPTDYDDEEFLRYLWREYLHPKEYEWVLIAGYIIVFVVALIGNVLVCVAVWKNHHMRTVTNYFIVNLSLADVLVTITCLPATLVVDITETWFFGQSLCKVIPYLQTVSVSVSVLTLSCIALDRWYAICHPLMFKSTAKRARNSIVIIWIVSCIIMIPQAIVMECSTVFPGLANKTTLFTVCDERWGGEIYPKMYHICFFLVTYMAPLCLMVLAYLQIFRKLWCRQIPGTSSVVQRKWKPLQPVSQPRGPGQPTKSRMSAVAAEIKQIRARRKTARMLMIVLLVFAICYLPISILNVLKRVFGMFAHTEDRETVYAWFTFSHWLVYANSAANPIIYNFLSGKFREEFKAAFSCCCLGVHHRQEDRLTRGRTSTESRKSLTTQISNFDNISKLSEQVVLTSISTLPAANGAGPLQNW
Assay type: cell-based
Outline: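 CHO-K1 cells stably expressing human OX2 receptor (residues 1-444) were loaded with Fluo-4 AM plus probenecid. Calcium fluorescence after compound addition was recorded for 1 min 40 s. Activity (%) was scaled between DMSO (0%) and 10 nM orexin A final (100%).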
With `CS(=O)(=O)N[C@@H]1CN2C(=O)N(c3noc4cc(F)cc(-c5c(F)cccc5F)c34)C[C@@H]2C1(F)F` [Example 72, N-{(6R,7aR)-2-[4-(2,6-Difluorophenyl)-6-fluoro-1,2-benzoxazol-3-yl]-7,7-difluoro-3-oxohexahydro-1H-pyrrolo[1,2-c]imidazol-6-yl}methanesulfonamide] the “OX2R agonist activity (3 uM, %)” value was 98%.
In the case of `CS(=O)(=O)N[C@@H]1Cn2c(cn(-c3noc4cc(Cl)cc(-c5c(F)cccc5F)c34)c2=O)C1(F)F` [Example 73, N-{(6R)-2-[6-chloro-4-(2,6-difluorophenyl)-1,2-benzoxazol-3-yl]-7,7-difluoro-3-oxo-2,5,6,7-tetrahydro-3H-pyrrolo[1,2-c]imidazol-6-yl}methanesulfonamide], the “OX2R agonist activity (3 uM, %)” value is reported as 105%.
For `CS(=O)(=O)N[C@@H]1Cn2c(cn(-c3noc4cc(C(F)(F)F)cc(-c5c(F)cccc5F)c34)c2=O)C1(F)F` [Example 74, N-{(6R)-2-[4-(2,6-difluorophenyl)-6-(trifluoromethyl)-1,2-benzoxazol-3-yl]-7,7-difluoro-3-oxo-2,5,6,7-tetrahydro-3H-pyrrolo[1,2-c]imidazol-6-yl}methanesulfonamide], the “OX2R agonist activity (3 uM, %)” value was 104%.
In the case of `CS(=O)(=O)N[C@@H]1Cn2c(cn(-c3noc4ccc(F)c(-c5c(F)cccc5F)c34)c2=O)C1(F)F` [Example 75, N-{(6R)-2-[4-(2,6-Difluorophenyl)-5-fluoro-1,2-benzoxazol-3-yl]-7,7-difluoro-3-oxo-2,5,6,7-tetrahydro-3H-pyrrolo[1,2-c]imidazol-6-yl}methanesulfonamide], the “OX2R agonist activity (3 uM, %)” value is reported as 99%.
In the case of `CCS(=O)(=O)N[C@@H]1Cn2c(cn(-c3noc4ccc(F)c(-c5c(F)cccc5F)c34)c2=O)C1(F)F` [Example 76, N-{(6R)-2-[4-(2,6-difluorophenyl)-5-fluoro-1,2-benzoxazol-3-yl]-7,7-difluoro-3-oxo-2,5,6,7-tetrahydro-3H-pyrrolo[1,2-c]imidazol-6-yl}ethanesulfonamide], the “OX2R agonist activity (3 uM, %)” value is reported as 105%.
With `CCS(=O)(=O)N[C@@H]1Cn2c(cn(-c3noc4cc(Cl)c(F)c(-c5c(F)cccc5F)c34)c2=O)C1(F)F` [Example 78, N-{(6R)-2-[6-chloro-4-(2,6-difluorophenyl)-5-fluoro-1,2-benzoxazol-3-yl]-7,7-difluoro-3-oxo-2,5,6,7-tetrahydro-3H-pyrrolo[1,2-c]imidazol-6-yl}ethanesulfonamide] the “OX2R agonist activity (3 uM, %)” value was 104%.
`CCS(=O)(=O)N[C@@H]1CN2C(=O)N(c3noc4cc(Cl)c(F)c(-c5c(F)cccc5F)c34)C[C@@H]2C1(F)F` [Example 79, N-{(6R,7aR)-2-[6-chloro-4-(2,6-difluorophenyl)-5-fluoro-1,2-benzoxazol-3-yl]-7,7-difluoro-3-oxohexahydro-1H-pyrrolo[1,2-c]imidazol-6-yl}ethanesulfonamide] was tested, and the “OX2R agonist activity (3 uM, %)” value was 99%.
`CCS(=O)(=O)N[C@H]1C[C@H]2CN(c3noc4cccc(-c5sccc5C)c34)C(=O)N2C1` [Example 83, N-{(6S,7aS)-2-[4-(3-methylthiophen-2-yl)-1,2-benzoxazol-3-yl]-3-oxohexahydro-1H-pyrrolo[1,2-c]imidazol-6-yl}ethanesulfonamide] was tested, and the “OX2R agonist activity (3 uM, %)” value was 84%.
`CCS(=O)(=O)N[C@H]1Cc2cn(-c3noc4cc(C(F)(F)F)cc(-c5c(F)cccc5F)c34)c(=O)n2C1` [Example 84, N-{(6S)-2-[4-(2,6-difluorophenyl)-6-(trifluoromethyl)-1,2-benzoxazol-3-yl]-3-oxo-2,5,6,7-tetrahydro-3H-pyrrolo[1,2-c]imidazol-6-yl}ethanesulfonamide] was tested, and the “OX2R agonist activity (3 uM, %)” value was 92%.
`CCS(=O)(=O)N[C@H]1Cc2cn(-c3c(C)nn4cccc(-c5c(F)cccc5F)c34)c(=O)n2C1` [Example 85, N-{(6S)-2-[4-(2,6-difluorophenyl)-2-methylpyrazolo[1,5-a]pyridin-3-yl]-3-oxo-2,5,6,7-tetrahydro-3H-pyrrolo[1,2-c]imidazol-6-yl}ethanesulfonamide] was tested, and the “OX2R agonist activity (3 uM, %)” value was 95%.
